Data reported in patent EP2012793B1, “USE OF A TRICYCLIC COMPOUND FOR PREPARING A MEDICAMENT FOR TREATING SKELETAL MUSCLE DEGENERATION OF GENETIC ORIGIN” (Association Française contre les Myopathies, priority 2006, dated 2007).
Structures can show the parent of a compound that is named as a salt.

Assays:
[1] = system: souche de nématode dépourvue de dystrophine; experiment: Test on dystrophin-deficient nematode strain (model of degenerative myopathy): paralysis phenotype and cytological count of degenerating muscle cells; assay type: in vivo, Caenorhabditis elegans; details: for Diminution de la dégénérescence en %: untreated = 0; for Pourcentage d'animaux paralysés à J7: untreated = 100
Procedure: Les composés ont été testés sur une souche de nématode dépourvue de dystrophine (Gieseler et al., Current Biology, 2000, vol. 10, p1092-1097) et (Ségalat, Neuromuscular Disorders, 2002, Suppl: S105-9). Cette souche est utilisée comme modèle de myopathie dégénérative. Dans cette souche, jusqu'à 30% des cellules musculaires servant à la locomotion (muscles longitudinaux) dégénèrent à l'état adulte (7 jours à 15°C), ce qui se traduit par une paralysie progressive des animaux.
Les composés sont administrés par mélange avec la gélose sur laquelle sont cultivés les animaux. Ils pénètrent par diffusion à travers la cuticule des animaux.
L'effet des composés sur la dégénérescence musculaire est évalué par 1) l'observation du phénotype des animaux (paralysie), et 2) par l'examen cytologique de la. dégénérescence musculaire au moyen de marqueurs musculaires : rodamine-phalloidine et anticorps anti-myosine. Cet examen permet de compter le nombre de cellules musculaires en dégénérescence ou mortes (Gieseler et al. , 2000, supra).

[2] = system: souris mdx (génotype C57/BL6 mdx5cv); experiment: mdx mouse, histological tests (fibre size dispersion, diaphragm degeneration/necrosis, centronucleated fibres); assay type: in vivo
Text: (§1) Les tests effectués chez la souris sont de plusieurs types : histologiques, fonctionnels sur l'animal entier, et fonctionnels sur muscles disséqués. Les tests sont effectués sur la souris mdx (génotype C57/BL6 mdx5cv), modèle murin de myopathie dégénérative. Ces tests sont notamment détaillés dans les publications suivantes auxquelles on pourra se référer : • De Luca A, et al. Am. J. Pathol. 2005; 166(2), 477-89. • Divet A, etal. Pflugers Arch. 2002 Aug; 444(5), 634-43. Epub 2002 Jul 10. • Rafael JA, et al. Mamm Genome. 2000 Sep; 11(9), 725-8.
(§2) Les composés sont administrés oralement aux souris dans leur nourriture. Les souris sont traitées de l'âge de 2 semaines à 6 semaines. Elles sont testées à 6 semaines.

[3] = system: souris mdx (génotype C57/BL6 mdx5cv); details: treated from 2 to 6 weeks of age
Text: as §1, §2

[4] = system: protéolyse du muscle de C. elegans; experiment: C. elegans muscle proteolysis model representative of cachexia (protocol of Zdinak et al.); assay type: in vivo; details: remaining proteolysis relative to control; strongly reduced
[5] = 0,1 mg/ml in culture agar (0,2-0,3 mM), after 7 days of culture at 15°C
[6] = concentration efficace 0,1 mg/ml in culture agar

`CN(C)CC/C=C1/c2ccccc2Sc2ccc(Cl)cc21` [Chloroprothixene, chlorprothixene] was tested. Which “Diminution de la dégénérescence en %” value ([1]; concentration efficace 0,02 mg/ml in culture agar) did it give?
The value was 58%.

Which nécrose du diaphragme ([2]; 15 mg/kg/jour, test of Raymackers et al., p<5%) does the source give for `CC(CN(C)C)CN1c2ccccc2CCc2ccccc21` (stereo not shown) [Trimipramine maleate, trimipramine] here?
Its nécrose du diaphragme is “réduit la nécrose du diaphragme”.

What about the “nombre de fibres centronucléées” value ([2]; 15 mg/kg/jour, test of Shavlakadze et al., p<0,1%) of the same compound?
Its value is “réduit”.

What does the source list for `CN(C)CCCN1c2ccccc2CCc2ccccc21` [Imipramine chlorhydrate, imipramine]?
Diminution de la dégénérescence en % [1, 5]: 37%; Pourcentage d'animaux paralysés à J7 [1, 5]: 65%; Augmentation de la tension développée par le muscle EDL sur animaux vivants ([3]; 40mg/jour/kg oral in food): 20%; Augmentation du score avec le test d'agrippement ([3]; 40mg/jour/kg oral in food): 48%; Augmentation de la tension maximale développée par le muscle isolé ([3]; 40mg/jour/kg oral in food, triton-skinned fibre protocol): 50%; protéolyse [4]: 20 % de la protéolyse du témoin

Which “Diminution de la dégénérescence en %” value [1, 6] does the source give for `COc1ccc2c(c1)N(C[C@H](C)CN(C)C)c1ccccc1S2` [Methotrimeprazine, méthotriméprazine] here?
The value was 70%.

Which dégénérescence musculaire ([1]; result in words, concentration not given) does the source give for `NCCc1c[nH]c2ccc(O)cc12` [sérotonine] here?
The dégénérescence musculaire was “diminue également la dégénérescence musculaire”.

`CC(CN(C)C)CN1c2ccccc2Sc2ccccc21` (stereo not shown) [Trimeprazine, triméprazine] was tested. Which “Diminution de la dégénérescence en %” value [1, 6] did it give?
The value was 65%.

`CNCCCN1c2ccccc2CCc2ccccc21` [Desipramine chlorhydrate, désipramine] was tested. Which “Diminution de la dégénérescence en %” value [1, 5] did it give?
Its value is 58%.

What about the “Pourcentage d'animaux paralysés à J7” value [1, 5] of the same compound?
Its value is 58%.

With `CN(C)CCC=C1c2ccccc2C=Cc2ccccc21` [Cyclobenzaprine, cyclobenzaprine] as the compound, how does the “Diminution de la dégénérescence en %” value ([1]; concentration efficace 0,05 mg/ml in culture agar) read?
The value was 63%.

And the “Augmentation de la force exercée dans test d'agrippement” value ([3]; 3mg/jour/kg oral in food)?
Its value is 24%.

And the “Augmentation du score le test d'agrippement” value ([3]; 3mg/jour/kg oral in food)?
The value was 40%.

And the “Réduction de l'indice de dégénérescence du diaphragme (fibres nécrotiques et fibres centronucléées)” value ([2]; 3mg/jour/kg oral in food, treated from 2 to 6 weeks of age)?
The value was 21%.

What about the “Réduction de la dispersion de taille des fibres (marqueur de dégénérescence)” value ([2]; 3mg/jour/kg oral in food, treated from 2 to 6 weeks of age, versus untreated animals) of the same compound?
The value was 52%.
